Assay results taken from patent US10188617B2, “Modulation of cellular DNA repair activity to intercept malignancy” (THE BOARD OF TRUSTEES OF THE LELAND STANFORD JUNIOR …, priority 2013, dated 2019).
pEC50: −log10 of the molar value. Where a name gives a salt, the structure may show the parent alone.

How the values were obtained:
[1] = system: BER of ODD in SUM149PT cells; assay: High-throughput chemical screen with cell-based DNA repair assay (oxidatively damaged GFP reporter, host-cell reactivation); conditions: for pEC50: read-out: EC50 (image analysis), dose-response increase in GFP expression by imaging, 20 μM to 0.3 μM two-fold dilutions; for Priority score (summed priority score): sum of assigned priority scores, range 1-10, 10 = highest priority; for % BER (High) (image analysis): % BER activity relative to negative control at high concentration; for identified as hit in the screen (enhanced BER of ODD): LOPAC1280 library, summed priority score above 1;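 as to all read-outs here: SUM149PT cells pretreated 24 h with compound, then given photodynamically oxidized adenoviral GFP reporter, 24 h host-cell reactivation, GFP read as repair, undamaged reporter positive and damaged reporter negative control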
[2] = system: BER of ODD in MCF7 cells (wild-type BRCA1, BER-proficient); assay: DNA repair assay (oxidatively damaged GFP reporter gene), follow-up; format: cell-based, human; conditions: for repair compared to vehicle control (SAR mini-analysis): BER-proficient MCF7 cells
Experimental: (§1) Human breast cancer cell lines that were deficient in BER (HCC1143, MDAMB468, HCC1937, and SUM149) or proficient in BER (BT474 and MCF7) were cultured according to American Type Culture Collection guidelines, with the exception of SUM149, which was cultured according to Asterand plc guidelines. Brca1^+/+ and Brca1^-/- mouse mammary epithelial […] previously described. Cells were treated with DMSO (vehicle control) or acetohexamide or benserazide as indicated for 24 hours at 37° C. and 5% CO2. The DNA repair assay was carried out as described in the examples below. Where indicated, BER (base excision mode of DNA repair) activity was expressed relative to the control (DMSO).

[3] = system: BER of ODD in SUM149 cells (mutant BRCA1, BER-defective); assay: as above; format: cell-based, human; conditions: for repair activity compared to the vehicle control: SUM149; for relative BER activity: relative to the control (DMSO)
Experimental: as §1

[4] = system: MCF7 cells transduced with non-targeting control; assay: Soft agar colony formation assay; format: cell-based, human
Description: (§2) […] Colony formation represents tumorigenic potential. Tamoxifen is the current FDA-approved chemoprevention agent for breast cancer and a therapeutically-equivalent dose was used for comparison.
(§3) Benserazide and carbidopa were also both included among the compounds screened for BER-enhancing activity (FIG. 3A-3B). […] Therefore, we first validated our screening data by subjecting the mutant BRCA1-containing SUM149 cell line to the BER assay following pre-treatment with vehicle control or carbidopa.

[5] = system: MCF7 cells transduced with shRNA to BRCA1; assay: Soft agar colony formation assay; format: cell-based, human
Description: as §2, §3

[6] = system: BER of ODD in HCC1937 cells (mutant BRCA1); assay: DNA repair assay (oxidatively damaged GFP reporter gene), follow-up; format: cell-based, human; conditions: 20 μM, HCC1937, vs vehicle
Experimental: as §1

[7] = system: BER of ODD in BT474 cells (wild-type BRCA1); assay: as above; format: cell-based, human; conditions: 20 μM, BT474, vs vehicle
Experimental: as §1

[8] = system: SUM149PT and other cell lines; assay: MTT assay (cell viability); format: cell-based, human; conditions: concentrations up to 1 mM, 72 hours
[9] = system: other BER-defective breast cancer cell lines; assay: Hoechst live-cell staining (cell number); format: cell-based, human; conditions: 20 μM
Experimental: (§4) Cells were treated with acetohexamide for 48 hours in quadruplicate and then incubated with 2 μg/ml Hoechst 33358 live-cell dye for 20 minutes. Four representative fields for each replicate were imaged by the ImageXpress 5000A high-content imager (Molecular Devices). Nuclei were counted using MetaMorph® software (Molecular Devices) and expressed as a percentage relative to the vehicle control (DMSO).

[10] = system: SUM149PT cells; assay: Hoechst live-cell staining (cell number); format: cell-based, human; conditions: concentrations up to 40 μM
Experimental: as §4

[11] = system: H2O2-induced ODD in breast cancer cell lines with defective BER; assay: Alkaline comet assay modified for detection of oxidative lesions (FPG); format: cell-based, human; conditions: pretreatment, compared to undamaged control
Experimental: (§5) Cells were collected and embedded into CometAssay® LM Agarose (Trevigen) and placed on CometAssay® HT Slides (Trevigen) in duplicate. Cells were lysed at 4° C. in Lysis Buffer (Trevigen) for >24 hours. Slides were treated with or without FPG enzyme at 37° C. and 5% CO2 for 45 minutes to nick DNA at sites of ODD and then subjected to alkaline treatment at 4° C. for 40 minutes to denature DNA. Slides underwent electrophoresis under alkaline conditions to separate intact from damaged DNA. Following neutralization, DNA was stained using SYBR® green I and visualized as a comet in shape by fluorescent microscopy under 20× objective. […] CometScore software was used to quantify % DNA in Tail. Strand breaks were determined by % DNA in Tail in FPG-minus samples. ODD was determined by subtracting % DNA in Tail in FPG-minus samples from % DNA in Tail in FPG-plus samples.

[12] = system: 8oxoG lesions in breast cancer cell lines with defective BER; assay: 8oxoG lesions (OxyFlow Kit); format: cell-based, human; conditions: time-dependent
Experimental: Cells were analyzed using the OxyFlow™ Kit (Hemogenix) according to the manufacturer's instructions.

[13] = system: BER-defective and BER-proficient cells; assay: Alkaline comet assay, strand breaks; format: cell-based; conditions: compared to the vehicle control; H2O2 positive control
Experimental: as §5

## C[C@H](CS)C(=O)N1CCC[C@H]1C(=O)O [Captopril]
[1]
  pEC50: 4.73
  Priority score (summed priority score): 7

## N=c1ccn2c(n1)O[C@H]1[C@H](O)[C@@H](CO)O[C@H]12 [Ancitabine hydrochloride]
[1]
  pEC50: 4.70
  Priority score (summed priority score): 10

## CCCCNC(=O)NS(=O)(=O)c1ccccc1 [BA-5]
[2]
  repair compared to vehicle control (SAR mini-analysis): none of the four analogs significantly increased repair
[3]; SUM149PT cells
  BER compared to the vehicle control (SAR mini-analysis): increased BER in these cells but without statistical significance

## Cl.NCCc1ccc(S(=O)(=O)F)cc1 [4-(2-Aminoethyl)benzenesulfonyl fluoride hydrochloride]
[1]; imaging
  % BER (High) (image analysis): 25.1%
[1]
  pEC50: 4.01
  Priority score (summed priority score): 7

## Cl.NC(CO)C(=O)NNCc1ccc(O)c(O)c1O (racemic) [Benserazide hydrochloride, DL-Serine 2-(2,3,4-trihydroxybenzyl)hydrazide hydrochloride]
[1]
  pEC50: 4.66
  Priority score (summed priority score): 7

## CC[N+](C)(C)Cc1ccccc1Br [Bretylium tosylate]
[1]
  pEC50: 4.57
  Priority score (summed priority score): 7

## CC(C)CCNC(=O)NS(=O)(=O)c1ccccc1 [BA-9]
[2]
  repair compared to vehicle control (SAR mini-analysis): none of the four analogs significantly increased repair
[3]; SUM149PT cells
  BER compared to the vehicle control (SAR mini-analysis): significantly increased BER

## Clc1ccccc1C(c1ccccc1)(c1ccccc1)n1ccnc1 [Clotrimazole]
[1]
  Priority score (summed priority score): 7

## CC(=O)O[C@]1(C(C)=O)CC[C@H]2[C@@H]3C=C(Cl)C4=CC(=O)[C@@H]5C[C@@H]5[C@]4(C)[C@H]3CC[C@@]21C [Cyproterone acetate]
[1]
  pEC50: 4.56
  Priority score (summed priority score): 7

## C[C@@](Cc1ccc(O)c(O)c1)(NN)C(=O)O [carbidopa, Carbidopa]
[3]; 10 μM
  repair activity compared to the vehicle control: no effect on repair activity
[3]; 20 μM
  repair activity compared to the vehicle control: no effect on repair activity
[4]; 10 μM
  colony formation compared to vehicle control: no significant effect on colony formation
[4]; 20 μM
  colony formation compared to vehicle control: no significant effect on colony formation
[5]; 10 μM
  colony formation compared to vehicle control: no significant effect on colony formation
[5]; 20 μM
  colony formation compared to vehicle control: no significant effect on colony formation
[1]
  identified as hit in the screen (enhanced BER of ODD): did not identify carbidopa as a hit

## Cc1cnc(C(=O)NCCc2ccc(S(=O)(=O)NC(=O)NC3CCCCC3)cc2)cn1 [Glipizide, N-(4-[N-(cyclohexylcarbamoyl)sulfamoyl]phenethyl)-5-methylpyrazine-2-carboxamide]
[2]
  repair compared to vehicle control (SAR mini-analysis): none of the four analogs significantly increased repair
[3]; SUM149PT cells
  BER compared to the vehicle control (SAR mini-analysis): significantly increased BER
[3]
  relative BER activity: 1.22±0.12
[1]
  identified as hit in the screen (enhanced BER of ODD): identified as a hit
  Priority score (summed priority score): 2

## Cc1ccc(S(=O)(=O)NC(=O)NC2CCCCC2)cc1 [BA-4]
[2]
  repair compared to vehicle control (SAR mini-analysis): none of the four analogs significantly increased repair
[3]; SUM149PT cells
  BER compared to the vehicle control (SAR mini-analysis): significantly increased BER

## CN(C)CCOC(=O)COc1ccc(Cl)cc1 [Centrophenoxine hydrochloride]
[1]
  pEC50: 4.69
  Priority score (summed priority score): 7

## CNc1ccc2oc(C[C@H]3O[C@@]4(CC[C@H]3C)O[C@H]([C@H](C)C(=O)c3ccc[nH]3)[C@H](C)C[C@H]4C)nc2c1C(=O)O [Calcimycin]
[1]
  pEC50: 5.29
  Priority score (summed priority score): 7

## CC(C)COCC(CN(Cc1ccccc1)c1ccccc1)N1CCCC1 (stereo not drawn) [Bepridil hydrochloride]
[1]
  pEC50: 4.64
  Priority score (summed priority score): 10

## O=C1c2c(O)ccc(O)c2C(=O)c2c(NCCNCCO)ccc(NCCNCCO)c21 [Mitoxantrone]
[1]
  pEC50: 4.88
  Priority score (summed priority score): 7

## COC(=O)C(N)Cc1ccc(Cl)cc1.Cl (racemic) [DL-p-Chlorophenylalanine methyl ester hydrochloride]
[1]
  pEC50: 4.59
  Priority score (summed priority score): 7

## C[C@@]12C(=O)OC(=O)[C@]1(C)[C@H]1CC[C@@H]2O1 [Cantharidin]
[1]
  Priority score (summed priority score): 10

## CN(C)CCC(c1ccc(Br)cc1)c1ccccn1.O=C(O)/C=C\C(=O)O (single isomer, unassigned; (+)) [(+)-Brompheniramine maleate]
[1]; imaging
  % BER (High) (image analysis): 29.4%
[1]
  pEC50: 4.56
  Priority score (summed priority score): 7

## Cl.Nc1ccn([C@@H]2O[C@H](CO)[C@@H](O)[C@@H]2O)c(=O)n1 [Cytosine-1-beta-D-arabinofuranoside hydrochloride]
[1]; imaging
  % BER (High) (image analysis): 18.3%
[1]
  pEC50: 4.64
  Priority score (summed priority score): 10

## O=c1[nH]c(=O)n([C@H]2C[C@H](O)[C@@H](CO)O2)cc1Br [5-Bromo-2′-deoxyuridine]
[1]; preliminary screen, highest concentration tested 18 uM
  GFP signal in image montage: visible signal similar to that of SUM149PTcells infected with undamaged adGFP
[1]; preliminary screen, imaging
  percentage of GFP-positive cells (normalized to Hoechst 33342-positive cells): dose-response increase in the percentage of GFP-positive cells
[1]; preliminary screen, plate reading
  GFP intensity (normalized to Hoechst 33342-intensity): dose-response increase in GFP intensity
[1]
  pEC50: 5.14
  Priority score (summed priority score): 10

## CC(=O)c1ccc(S(=O)(=O)NC(=O)NC2CCCCC2)cc1 [Acetohexamide]
[6]
  BER: statistically significant increase in BER
[2]; 20 μM, MCF7, vs vehicle
  BER: no effect on BER
[3]; 20 μM, SUM149, vs vehicle
  BER: statistically significant increase in BER
[3]; SUM149PT cells, 24 hours treatment
  repair of oxidatively damaged GFP reporter gene, dose-response: dose-response increase in repair of an oxidatively damaged GFP reporter gene
[3]
  relative BER activity: 1.68±0.13
[7]
  BER: no effect on BER
[8]
  cell viability (MTT): did not affect the cell viability
[9]
  cell number (Hoechst 33342 staining): nor did it affect the cell number
[10]
  number of cells (Hoechst 33342 staining): did not affect the number of SUM149PT cells
[11]
  H2O2-induced ODD: decreased H2O2-induced ODD to levels similar to those of the undamaged control
[1]
  pEC50: 4.37
  Priority score (summed priority score): 7
[1]; screening data by imaging, compared to negative control
  Hoechst-positive cells: 87.8%
[12]
  basal levels of 8oxoG lesions: decreased basal levels of 8oxoG lesions
[13]
  DNA strand breaks: did not significantly induce DNA strand breaks
